{
  "source": "paper PMC5218480",
  "about": "(PLoS ONE, 2017)",
  "test_system": "MV-4-11 cells",
  "assay": "Gene expression microarray analysis (Affymetrix PrimeView) and GSEA",
  "type": "cell-based, human",
  "parameters": "RFU PODN (11730768_x_at) / Fold change /veh PODN (11730768_x_at) / RFU LINC00158 (11744669_a_at) / Fold change /veh LINC00158 (11744669_a_at) / RFU DUSP10 (11751237_a_at) / Fold change /veh DUSP10 (11751237_a_at) / RFU ID3 (11757404_x_at) / Fold change /veh ID3 (11757404_x_at) / RFU PLEKHG5 (11737974_s_at) / Fold change /veh PLEKHG5 (11737974_s_at) / RFU LRRC4B (11730491_at) / Fold change /veh LRRC4B (11730491_at) / RFU GIMAP4 (11747438_a_at) / Fold change /veh GIMAP4 (11747438_a_at) / RFU KRT8 (11758183_x_at) / Fold change /veh KRT8 (11758183_x_at) / RFU CNN1 (11734310_a_at) / Fold change /veh CNN1 (11734310_a_at) / RFU VPS37D (11726825_at) / Fold change /veh VPS37D (11726825_at) / RFU C10orf10 (11716522_x_at) / Fold change /veh C10orf10 (11716522_x_at) / RFU KIR2DL2 /// KIR2DL4 /// KIR2DL5A /// KIR2DL5B /// KIR2DS1 /// KIR2DS2 /// KIR2DS3 /// KIR2DS4 /// KIR3DL3 /// KIR3DL3 /// KIR3DS1 (11738374_at) / Fold change /veh KIR2DL2 /// KIR2DL4 /// KIR2DL5A /// KIR2DL5B /// KIR2DS1 /// KIR2DS2 /// KIR2DS3 /// KIR2DS4 /// KIR3DL3 /// KIR3DL3 /// KIR3DS1 (11738374_at) / RFU C1QL1 (11718748_at) / Fold change /veh C1QL1 (11718748_at) / RFU TMPRSS4 (11747572_a_at) / Fold change /veh TMPRSS4 (11747572_a_at) / RFU HAMP (11756126_x_at) / Fold change /veh HAMP (11756126_x_at) / RFU RNFT2 (11725882_a_at) / Fold change /veh RNFT2 (11725882_a_at) / RFU NR4A2 (11747474_a_at) / Fold change /veh NR4A2 (11747474_a_at) / RFU ABCC12 (11746883_a_at) / Fold change /veh ABCC12 (11746883_a_at) / RFU TMEM136 (11760407_x_at) / Fold change /veh TMEM136 (11760407_x_at) / RFU CLDN22 /// WWC2 (11732394_at) / Fold change /veh CLDN22 /// WWC2 (11732394_at) / RFU HLA-DPB1 (11760878_x_at) / Fold change /veh HLA-DPB1 (11760878_x_at) / RFU SPINT1 (11716480_a_at) / Fold change /veh SPINT1 (11716480_a_at) / RFU GAP43 (11754022_s_at) / Fold change /veh GAP43 (11754022_s_at) / RFU A4GNT (11735810_at) / Fold change /veh A4GNT (11735810_at) / RFU PRB3 (11715151_x_at) / Fold change /veh PRB3 (11715151_x_at) / RFU TUBB4B (11761932_at) / Fold change /veh TUBB4B (11761932_at) / RFU CAPN14 (11732068_a_at) / Fold change /veh CAPN14 (11732068_a_at) / RFU TMCC2 (11721928_a_at) / Fold change /veh TMCC2 (11721928_a_at) / RFU IRGQ (11745062_a_at) / Fold change /veh IRGQ (11745062_a_at) / RFU FAM174B (11720279_a_at) / Fold change /veh FAM174B (11720279_a_at) / RFU TMPRSS4 (11748680_a_at) / Fold change /veh TMPRSS4 (11748680_a_at) / RFU FAM212B (11763350_a_at) / Fold change /veh FAM212B (11763350_a_at) / RFU PLEKHG5 (11743358_a_at) / Fold change /veh PLEKHG5 (11743358_a_at) / RFU ZSCAN30 (11745921_a_at) / Fold change /veh ZSCAN30 (11745921_a_at) / RFU CMKLR1 (11741424_a_at) / Fold change /veh CMKLR1 (11741424_a_at) / RFU LOC101060620 /// MAPK8IP1 (11723275_at) / Fold change /veh LOC101060620 /// MAPK8IP1 (11723275_at) / RFU SPTSSB (11747773_x_at) / Fold change /veh SPTSSB (11747773_x_at) / RFU PRSS12 (11739890_at) / Fold change /veh PRSS12 (11739890_at) / RFU BIN1 (11741810_x_at) / Fold change /veh BIN1 (11741810_x_at) / RFU WNT11 (11732464_a_at) / Fold change /veh WNT11 (11732464_a_at) / RFU C10orf10 (11716521_a_at) / Fold change /veh C10orf10 (11716521_a_at) / RFU C5orf56 (11738089_at) / Fold change /veh C5orf56 (11738089_at) / RFU CYB561 (11721691_x_at) / Fold change /veh CYB561 (11721691_x_at) / RFU ANKRD19P (11752326_a_at) / Fold change /veh ANKRD19P (11752326_a_at) / RFU OR2T12 /// OR2T33 /// OR2T8 (11738714_s_at) / Fold change /veh OR2T12 /// OR2T33 /// OR2T8 (11738714_s_at) / RFU VCAN (11748164_a_at) / Fold change /veh VCAN (11748164_a_at) / RFU JSRP1 (11732532_at) / Fold change /veh JSRP1 (11732532_at) / RFU KRTAP10-11 (11738290_x_at) / Fold change /veh KRTAP10-11 (11738290_x_at) / RFU MYO3A (11730013_a_at) / Fold change /veh MYO3A (11730013_a_at) / RFU EBF3 (11725865_a_at) / Fold change /veh EBF3 (11725865_a_at) / RFU CAMK2N1 (11719241_x_at) / Fold change /veh CAMK2N1 (11719241_x_at) / RFU C5orf56 (11738088_a_at) / Fold change /veh C5orf56 (11738088_a_at) / RFU OLFML3 (11715873_a_at) / Fold change /veh OLFML3 (11715873_a_at) / RFU LOC100653217 /// NTM (11731650_a_at) / Fold change /veh LOC100653217 /// NTM (11731650_a_at) / RFU MAPK11 (11762145_a_at) / Fold change /veh MAPK11 (11762145_a_at) / RFU FIZ1 (11724087_x_at) / Fold change /veh FIZ1 (11724087_x_at) / RFU OASL (11726364_x_at) / Fold change /veh OASL (11726364_x_at) / RFU SOX15 (11748057_x_at) / Fold change /veh SOX15 (11748057_x_at) / RFU CD79A (11719716_a_at) / Fold change /veh CD79A (11719716_a_at) / RFU HIST1H1D (11736915_at) / Fold change /veh HIST1H1D (11736915_at) / RFU CASKIN2 (11723855_a_at) / Fold change /veh CASKIN2 (11723855_a_at) / RFU LOC730098 (11760151_x_at) / Fold change /veh LOC730098 (11760151_x_at) / RFU OR4N2 (11742367_at) / Fold change /veh OR4N2 (11742367_at) / RFU PRRT2 (11749266_a_at) / Fold change /veh PRRT2 (11749266_a_at) / RFU SNX32 (11753110_a_at) / Fold change /veh SNX32 (11753110_a_at) / RFU CDHR5 (11726645_a_at) / Fold change /veh CDHR5 (11726645_a_at) / RFU RCAN1 (11760418_a_at) / Fold change /veh RCAN1 (11760418_a_at) / RFU FAM167A (11723789_a_at) / Fold change /veh FAM167A (11723789_a_at) / RFU FAM26E (11764081_at) / Fold change /veh FAM26E (11764081_at) / RFU ISYNA1 (11749810_s_at) / Fold change /veh ISYNA1 (11749810_s_at) / RFU ACY1 (11761880_at) / Fold change /veh ACY1 (11761880_at) / RFU 11764098_at / Fold change /veh 11764098_at / RFU SAMD14 (11745864_x_at) / Fold change /veh SAMD14 (11745864_x_at) / RFU NPB (11741838_a_at) / Fold change /veh NPB (11741838_a_at) / RFU TMPRSS6 (11731388_a_at) / Fold change /veh TMPRSS6 (11731388_a_at) / RFU KRTAP10-2 (11738614_at) / Fold change /veh KRTAP10-2 (11738614_at) / RFU ARHGAP8 /// PRR5-ARHGAP8 (11727945_x_at) / Fold change /veh ARHGAP8 /// PRR5-ARHGAP8 (11727945_x_at) / RFU KRTAP5-7 /// NADSYN1 (11734609_at) / Fold change /veh KRTAP5-7 /// NADSYN1 (11734609_at) / RFU RASL12 (11751679_a_at) / Fold change /veh RASL12 (11751679_a_at) / RFU CDKN2B (11736163_a_at) / Fold change /veh CDKN2B (11736163_a_at) / RFU PRF1 (11729649_at) / Fold change /veh PRF1 (11729649_at) / RFU, ZNF638 /// ZNF638-IT1 / Fold change vs veh, ZNF638 /// ZNF638-IT1 / RFU, PANK3 / Fold change vs veh, PANK3 / RFU, SH3YL1 / Fold change vs veh, SH3YL1 / RFU, ZEB2 / Fold change vs veh, ZEB2 / RFU, NRIP1 / Fold change vs veh, NRIP1 / RFU, PTTG1IP / Fold change vs veh, PTTG1IP / RFU, CAPN2 / Fold change vs veh, CAPN2 / RFU, MED14 / Fold change vs veh, MED14 / RFU, SNORA58 / Fold change vs veh, SNORA58 / RFU, C1orf63 / Fold change vs veh, C1orf63 / RFU, LRRFIP1 / Fold change vs veh, LRRFIP1 / RFU, NDUFAF7 / Fold change vs veh, NDUFAF7 / RFU, SLC12A2 / Fold change vs veh, SLC12A2 / RFU, IBTK / Fold change vs veh, IBTK / RFU, ESF1 / Fold change vs veh, ESF1 / Fold change vs veh, TMEM50B / RFU, TAOK1 / Fold change vs veh, TAOK1 / RFU, ACBD3 / Fold change vs veh, ACBD3 / RFU, TMA16 / Fold change vs veh, TMA16 / RFU, RWDD3 / Fold change vs veh, RWDD3 / RFU, BCAT1 / Fold change vs veh, BCAT1 / RFU, EDEM3 / Fold change vs veh, EDEM3 / RFU, TMEM33 / Fold change vs veh, TMEM33 / RFU, WDR75 / Fold change vs veh, WDR75 / RFU, AHCTF1 / Fold change vs veh, AHCTF1 / RFU, TFRC / Fold change vs veh, TFRC / RFU, ZDHHC17 / Fold change vs veh, ZDHHC17 / RFU, NOM1 / Fold change vs veh, NOM1 / RFU, ARL8B / Fold change vs veh, ARL8B / RFU, ZBTB11 / Fold change vs veh, ZBTB11 / RFU, TAMM41 / Fold change vs veh, TAMM41 / RFU, KIAA1704 /// LOC100996395 / Fold change vs veh, KIAA1704 /// LOC100996395 / RFU, ING1 / Fold change vs veh, ING1 / RFU, TRMT61B / Fold change vs veh, TRMT61B / RFU, FUBP3 / Fold change vs veh, FUBP3 / RFU, TP53 / Fold change vs veh, TP53 / RFU, TNKS2 / Fold change vs veh, TNKS2 / RFU, ZFP14 / Fold change vs veh, ZFP14 / RFU, ACTR2 / Fold change vs veh, ACTR2 / RFU, PPP3R1 / Fold change vs veh, PPP3R1 / RFU, PIK3R1 / Fold change vs veh, PIK3R1 / RFU, HNRNPA1 / Fold change vs veh, HNRNPA1 / RFU, RNF170 / Fold change vs veh, RNF170 / RFU, ZNF28 / Fold change vs veh, ZNF28 / RFU, RNGTT / Fold change vs veh, RNGTT / RFU, OGT / Fold change vs veh, OGT / RFU, BRD1 / Fold change vs veh, BRD1 / RFU, MARS / Fold change vs veh, MARS / RFU, ZNF655 / Fold change vs veh, ZNF655 / RFU, FAHD1 / Fold change vs veh, FAHD1 / RFU, BDP1 / Fold change vs veh, BDP1 / RFU, LRRCC1 / Fold change vs veh, LRRCC1 / RFU, ARID1A / Fold change vs veh, ARID1A / RFU, ZNF146 / Fold change vs veh, ZNF146 / RFU, ZNF330 / Fold change vs veh, ZNF330 / RFU, GPN3 / Fold change vs veh, GPN3 / RFU, C9orf123 / Fold change vs veh, C9orf123 / RFU, N4BP2L2 / Fold change vs veh, N4BP2L2 / RFU, ARFIP1 / Fold change vs veh, ARFIP1 / RFU, FAM179B / Fold change vs veh, FAM179B / RFU, BCL10 / Fold change vs veh, BCL10 / RFU, UHRF1BP1L / Fold change vs veh, UHRF1BP1L / RFU, BET1 / Fold change vs veh, BET1 / RFU, CNOT2 / Fold change vs veh, CNOT2 / RFU, ZNF268 / Fold change vs veh, ZNF268 / Fold change vs veh, ZNF507 / RFU, DGCR2 / Fold change vs veh, DGCR2 / RFU, WDSUB1 / Fold change vs veh, WDSUB1 / Fold change vs veh, HSP90B1 /// MIR3652 / RFU, ADSS / Fold change vs veh, ADSS / RFU, GK / Fold change vs veh, GK / RFU, ZNF148 / Fold change vs veh, ZNF148 / RFU, TAF9 / Fold change vs veh, TAF9 / RFU, SLC1A5 / Fold change vs veh, SLC1A5 / RFU, SLMO2 / Fold change vs veh, SLMO2 / RFU, ABCC4 / Fold change vs veh, ABCC4 / RFU, LOC101060439 /// RAP1B / Fold change vs veh, LOC101060439 /// RAP1B / RFU, RFX7 / Fold change vs veh, RFX7 / RFU, GTPBP10 / Fold change vs veh, GTPBP10 / RFU, CNEP1R1 / Fold change vs veh, CNEP1R1 / RFU, BIVM-ERCC5 /// ERCC5 / Fold change vs veh, BIVM-ERCC5 /// ERCC5 / RFU, ILF3 / Fold change vs veh, ILF3 / RFU 11762660_at / Fold change /veh 11762660_at / RFU VCAN (11757783_s_at) / Fold change /veh VCAN (11757783_s_at) / RFU DDX43 (11728927_at) / Fold change /veh DDX43 (11728927_at) / RFU KRT8 (11758188_x_at) / Fold change /veh KRT8 (11758188_x_at) / RFU NKD1 (11759106_at) / Fold change /veh NKD1 (11759106_at) / RFU SRD5A1 (11742802_a_at) / Fold change /veh SRD5A1 (11742802_a_at) / RFU TPSAB1 /// TPSB2 (11721975_s_at) / Fold change /veh TPSAB1 /// TPSB2 (11721975_s_at) / RFU GSTM3 (11746129_a_at) / Fold change /veh GSTM3 (11746129_a_at) / RFU IL23R (11737362_x_at) / Fold change /veh IL23R (11737362_x_at) / RFU TMEM51 (11727254_a_at) / Fold change /veh TMEM51 (11727254_a_at) / RFU PIWIL2 (11732686_x_at) / Fold change /veh PIWIL2 (11732686_x_at) / RFU ORM1 (11744905_x_at) / Fold change /veh ORM1 (11744905_x_at) / RFU CCDC152 (11743942_at) / Fold change /veh CCDC152 (11743942_at) / RFU ECM1 (11717891_a_at) / Fold change /veh ECM1 (11717891_a_at) / RFU IL23R (11748794_a_at) / Fold change /veh IL23R (11748794_a_at) / RFU TNFAIP8L3 (11732012_x_at) / Fold change /veh TNFAIP8L3 (11732012_x_at) / RFU MBOAT4 (11741988_at) / Fold change /veh MBOAT4 (11741988_at) / RFU 11764193_at / Fold change /veh 11764193_at / RFU TMEM53 (11763286_at) / Fold change /veh TMEM53 (11763286_at) / RFU MAGEB2 (11727129_at) / Fold change /veh MAGEB2 (11727129_at) / RFU TMEM200A (11744735_a_at) / Fold change /veh TMEM200A (11744735_a_at) / RFU CCDC152 (11751479_a_at) / Fold change /veh CCDC152 (11751479_a_at) / RFU FAM211A (11726209_a_at) / Fold change /veh FAM211A (11726209_a_at) / RFU RGS16 (11746705_a_at) / Fold change /veh RGS16 (11746705_a_at) / RFU VCAN (11755009_s_at) / Fold change /veh VCAN (11755009_s_at) / RFU RHOB (11743442_s_at) / Fold change /veh RHOB (11743442_s_at) / RFU RGS16 (11720943_a_at) / Fold change /veh RGS16 (11720943_a_at) / RFU RGS16 (11720944_at) / Fold change /veh RGS16 (11720944_at) / RFU, VPS4B / Fold change vs veh, VPS4B / RFU, CREB1 / Fold change vs veh, CREB1 / RFU, DNAJC13 / Fold change vs veh, DNAJC13 / RFU, GNAQ / Fold change vs veh, GNAQ / RFU, CDK5R1 / Fold change vs veh, CDK5R1 / RFU, ZRANB3 / Fold change vs veh, ZRANB3 / RFU, CUL4A / Fold change vs veh, CUL4A / RFU, CCNY / Fold change vs veh, CCNY / RFU, UFL1 / Fold change vs veh, UFL1 / RFU, COG3 / Fold change vs veh, COG3 / RFU, DIAPH2 / Fold change vs veh, DIAPH2 / RFU, SKA2 / Fold change vs veh, SKA2 / RFU, AFF3 / Fold change vs veh, AFF3 / RFU, LMF1 / Fold change vs veh, LMF1 / RFU, IPO11 / Fold change vs veh, IPO11 / RFU, DFFB / Fold change vs veh, DFFB / RFU, FOXP1 / Fold change vs veh, FOXP1 / RFU, CARD8 / Fold change vs veh, CARD8 / RFU, STRN3 / Fold change vs veh, STRN3 / RFU, ADK / Fold change vs veh, ADK / RFU, RASSF2 / Fold change vs veh, RASSF2 / RFU, WIPF1 / Fold change vs veh, WIPF1 / RFU, LARP1B / Fold change vs veh, LARP1B / RFU, RASA1 / Fold change vs veh, RASA1 / RFU, RB1 / Fold change vs veh, RB1 / RFU, PPFIA1 / Fold change vs veh, PPFIA1 / RFU, MAT2A / Fold change vs veh, MAT2A / RFU, CCT5 / Fold change vs veh, CCT5 / RFU, WDR92 / Fold change vs veh, WDR92 / RFU, CUX1 / Fold change vs veh, CUX1 / RFU, TTC7A / Fold change vs veh, TTC7A / RFU, TMEM135 / Fold change vs veh, TMEM135 / RFU, DEPTOR / Fold change vs veh, DEPTOR / RFU, CPM / Fold change vs veh, CPM / RFU, DNAJB6 / Fold change vs veh, DNAJB6 / RFU, CACNA2D3 / Fold change vs veh, CACNA2D3 / RFU, DTX4 / Fold change vs veh, DTX4 / RFU, TFCP2 / Fold change vs veh, TFCP2 / RFU, GMCL1 /// GMCL1P1 / Fold change vs veh, GMCL1 /// GMCL1P1 / RFU, AEBP2 / Fold change vs veh, AEBP2 / RFU, SNHG1 /// SNORD22 /// SNORD25 /// SNORD26 /// SNORD27 /// SNORD28 /// SNORD29 /// SNORD31 / Fold change vs veh, SNHG1 /// SNORD22 /// SNORD25 /// SNORD26 /// SNORD27 /// SNORD28 /// SNORD29 /// SNORD31 / Fold change (Aza/veh), C12orf56 (ProbeSet 11735607_a_at) / Fold change (ACY-1035/veh), C12orf56 (ProbeSet 11735607_a_at) / Fold change (Aza/veh), FGFR1OP (ProbeSet 11751329_s_at) / Fold change (ACY-1035/veh), FGFR1OP (ProbeSet 11751329_s_at) / Fold change (Aza/veh), VPS36 (ProbeSet 11739960_a_at) / Fold change (ACY-1035/veh), VPS36 (ProbeSet 11739960_a_at) / RFU SYPL1 (11715823_x_at) / Fold change /veh SYPL1 (11715823_x_at) / RFU IGFBP7 (11715501_s_at) / Fold change /veh IGFBP7 (11715501_s_at) / RFU REEP3 (11722064_at) / Fold change /veh REEP3 (11722064_at) / RFU IGLL1 (11728026_x_at) / Fold change /veh IGLL1 (11728026_x_at): dose or concentration left out as unconfirmed",
  "conditions": "ProbeSet 11739106_a_at; LIST B",
  "data": [
    {"smiles": "Nc1ccc(-c2cccs2)cc1NC(=O)c1ccc2c(c1)cc(C1CC1)n2CCN1CCOCC1", "note": "[ACY-1035]", "values": [
      {"measurement": "RFU, TMEM33", "value": 263.53, "unit": "RFU"}
    ]}
  ]
}
